Results on one compound are retold here after patent US8614203B2, “Methods for the treatment of a central nervous system injury via a tapered administration protocol” (Emory University, priority 2005, dated 2013).

What all share (type): in vivo, Sprague-Dawley rats
Data set [1] has as its system medial frontal cortex (MFC) injury or sham. In words: Example 4: Digiscan locomotor activity boxes (center time). The text has this:
(§1) 60 male Sprague-Dawley rats weighing 290-310 g at the time of injury were used in this experiment. Food and water were provided ad libidum before and after surgery. Animals were handled and weighed daily from their arrival, seven days pre-surgery, to brain extraction three weeks post-surgery. Animals were handled in squads of 12, with n=10 per experimental condition. All animal procedures were approved by the Emory University Animal Care and Use Committee, Protocol #131-2002.
Isofluorane anesthesia was induced for four minutes and 45 seconds at 5% and maintained at 2.5%. Normal body temperature was maintained with a surgical heating pad placed beneath the sterile dressings. The scalp incision area was shaved and sterilized with iodine and isopropanol. A midline incision was made along the scalp and the fascia cleared to expose the surface of the skull. Medial, lateral, and dorsal stereotaxic coordinates were determined at bregma, and a 5-7 mm diameter bilateral craniotomy was performed mid-sagitally, 3 mm anterior to bregma. […] Sutures were used to close the incision after bleeding ceased. Animals were placed in individual heated, clean recovery cages until they awakened, and were returned to clean individual home cages with accessible moistened food pellets. Sham animals were anesthetized, and an incision was made at the top of the head. The fascia was cleared to expose bregma, then the incision was sutured closed. Sham surgeries were matched to lesion surgeries for all experimental conditions.
Sham (S) and lesion (L) animals were randomly assigned to one of three treatment groups: vehicle (VS, VL), acute withdrawal (AWS, AWL), and tapered withdrawal (TWS, TWL). […] Tapering was induced as halved dosages over the last two days of treatment. Dilutions for TW treatments were made with HBC stock. All injections were administered intraperitoneally at one hour post-injury, and subcutaneously at six hours post-injury and every 24 hours through the end of the treatment cycle. Five sets of 12 animals each were used, for a total n=10 for each experimental group over the entire experiment. Of these animals, all were used to acquire behavioral data, four samples were used for protein analysis, and six samples were used for histological analysis for each test condition.
Random order, blinded testing occurred under red light in a quiet environment one day before injury, and one and seven days post-withdrawal. Up to four animals were tested using the Digiscan Activity Monitoring System (AccuScan Instruments, inc. Columbus, Ohio) in each trial, with a total of three trials per test day. Rats were placed in the furthest left corner of the Digiscan Activity Box. At that time, the toggle switch was flipped to ‘on’. At exactly five minutes the computer ceased testing, assuring that all tests were the same length regardless of start time. Files were saved according to date and trial number, and the number of fecal boli recorded. Activity boxes were cleaned with 70% ethanol and dried between trials. Center time was defined by the computer as the amount of time the animal spent exploring the activity box away from the corners.
All results were expressed as the mean plus or minus the standard error of the mean. Statistical significance was set at p<0.05 for two-tailed tests, and data were analyzed using one-way analysis of variance (ANOVA) followed by LSD post hoc tests. […]

Data set [2] has as its system p53, active Caspase 3, TNFα and NFκB. In words: Example 3: Western blot of apoptotic and inflammatory proteins. Here is the method: (§2) Male Sprague-Dawley rats received either medial frontal cortex injury or sham surgery. Injections were given 1 and 6 hours post-injury, and every 24 hours for 7 days. Treatment groups (n=8) encompassed injured (I) and sham (S) acute withdrawal (AW), tapered withdrawal (TW) and vehicle (V) treatments. TW injections were progressively halved over the final two treatments. Behavioral testing was conducted post-surgery, mid- and post-withdrawal. Activity boxes were used to investigate vertical movements and exploration: Sensory neglect and anxiety behaviors were also analyzed. Brain harvesting was performed at 8 days or 3 weeks post-injury. Perfused tissue sections were analyzed for lesion volume and immunohistochemical response. Fresh brain tissue was flash frozen in chilled 2-methyl butane, and then homogenized for Western blot analysis.

The next data set has as its system p53. In words: Example 4: Western blotting densitometry, p53. As to conditions: all progesterone-treated animals (AW and TW); two weeks post-withdrawal.
Source text: as §1
Isofluorane anesthesia was induced for four minutes and 45 seconds at 5% and maintained at 2.5%. Normal body temperature was maintained with a surgical heating pad placed beneath the sterile dressings. The scalp incision area was shaved and sterilized with iodine and isopropanol. A midline incision was made along the scalp and the fascia cleared to expose the surface of the skull. Medial, lateral, and dorsal stereotaxic coordinates were determined at bregma, and a 5-7 mm diameter bilateral craniotomy was performed mid-sagitally, 3 mm anterior to bregma. […] Sutures were used to close the incision after bleeding ceased. […]
Brains for protein analysis were sectioned into the immediate area of the lesion and snap frozen in 2-methyl-butane chilled on dry ice. […] The amount of brain homogenate needed to standardize samples to 2 μg/μL for Western blotting was calculated from the results of these assays. […]

The subject of another data set is HSP70. In words: Example 3: Western blot of brain tissue, HSP70. As to conditions: TWI vs AWI vs VI, 3 weeks post-injury. As for the experimental part:
as §2

Data set [3] deals with medial frontal cortex injury. In words: Example 3: lesion reconstruction (lesion volume). As to conditions: tapered withdrawal, injured (TWI). Here is the method:
as §2

Turning to `CC(=O)[C@H]1CC[C@H]2[C@@H]3CCC4=CC(=O)CC[C@]4(C)[C@H]3CC[C@]12C` [progesterone, pregn-4-ene-3,20-dione], the center time result in data set [1] (acute withdrawal, lesion (AWL), one and seven days post-withdrawal) is reported as “increased center time compared to VL animals”; in data set [1] (acute withdrawal, sham (AWS), one day post-withdrawal), “significantly less center time compared to other shams”; in data set [1] (sham groups (AWS, TWS, VS), seven days post-withdrawal), “all sham animals spent equivalent center time”; in data set [1] (tapered withdrawal, lesion (TWL), one and seven days post-withdrawal), “increased center time over AWL animals”; in data set [1] (tapered withdrawal, sham (TWS), one day post-withdrawal), “increased center time at one day compared to VS animals”. For the same compound, in data set [2] (all progesterone treatments (acute and tapered) vs vehicle-only controls), the “expression of apoptotic and inflammatory proteins, outcome vs vehicle” value was “all progesterone treatments led to better outcomes compared to vehicle-only controls”. Further, the “apoptosis and inflammation (p53, active Caspase 3, TNFα, NFκB)” value in data set [2] (tapered withdrawal (TW)) is recorded as “decreased with TW”. Moreover, the “p53 levels (long-term marker of apoptosis)” value in the data set with p53 was “p53 levels indistinguishable from vehicle shams”. In the data set with HSP70, the HSP70 expression entry is listed as “increased for TWI over AWI over VI at 3 weeks post-injury”. Also, the lesion volume entry in data set [3] is given as “smallest lesion volume”.
